Experimental findings from the OPERA property sets (Mansouri et al. 2018) are described below.

The term boiling point denotes the temperature of boiling at a given pressure. For orientation: melting point means the temperature of the solid-liquid transition.

Conditions in the first data set: not given
`Brc1cncc(Br)c1` registered a boiling point of 222 °C and a melting point of 112 °C.
In the case of `C=CCC(C)C`, the boiling point came out at 53.9 °C, the log10 vapour pressure (mmHg) was 2.43, the melting point was -154 °C and the ready biodegradability entry is on record as “not readily biodegradable”.
Regarding `C=C(C)CCC(=C)C`, the boiling point came out at 114 °C and the melting point is -75.6 °C.
Consider `CN(C)C(=O)SCCCCOc1ccccc1`, for which the log10 vapour pressure (mmHg) is -5.9 and the melting point was determined as 40.5 °C.
`C=CCc1ccc(O)c(OC)c1` returned a boiling point of 253 °C, a log10 vapour pressure (mmHg) of -1.65 and a melting point of -9.1 °C.
In the case of `CCCSP(=O)(OCC)SCCC`, the log10 Koc (L/kg) amounted to 1.85, the log10 vapour pressure (mmHg) is -3.42 and the melting point was -13 °C.
The compound `C[Si]1(c2ccccc2)O[Si](C)(c2ccccc2)O[Si](C)(c2ccccc2)O1` (configuration not stated) gave a melting point of 100 °C.
As to `Cc1ccc(C(=O)c2ccccc2)cc1C`, the boiling point was found to be 341 °C and the melting point was found to be 47.5 °C.
In turn, `NC(=O)C(Cl)(Cl)Cl` showed a boiling point of 240 °C, a log10 Koc (L/kg) of 0.99 and a melting point of 142 °C.
Consider `c1cc(N(CC2CO2)CC2CO2)ccc1Cc1ccc(N(CC2CO2)CC2CO2)cc1` (configuration not stated), for which the ready biodegradability entry was “not readily biodegradable”.
In the case of `C=CCCCCCC=C`, the boiling point turned out to be 142 °C.
Take `O=C(O)c1cccc2c(Cl)cccc12`: the melting point is 245 °C.
On the same count and under the same terms, then `O=C(O)c1ccc(NC(=O)[C@H](Cc2ccc(O)cc2)NC(=O)c2ccccc2)cc1`, with 241 °C.
On the same count and under the same terms, the same measure for `CCCN(CCC)c1c([N+](=O)[O-])cc(C)cc1[N+](=O)[O-]`: 80 °C.
Compound `CC(C)CCC(C)(C)O` gave a boiling point of 154 °C.
`NNC(=O)c1ccccc1[N+](=O)[O-]` registered a melting point of 124 °C.
The same measure, in the same setting: the same measure for `CCCCCCCCCCCCCCCC(=O)c1ccccc1`: 59 °C.
For the compound `CC(C)c1cc(C(C)C)c(C(C)C)cc1C(C)C`, the boiling point was found to be 259 °C, the log10 vapour pressure (mmHg) is -2.7 and the melting point was 118 °C.
In turn, `Oc1cc2ccccc2cc1O` returned a melting point of 162 °C.
`C[C@H]1CC(=O)C[C@@H]2CC[C@H]3[C@@H]4CC[C@H](O)[C@@]4(C)CC[C@@H]3[C@]21C` gave a melting point of 204 °C.
Still for that read-out and setting: the same measure for `CC(C)(C)c1cc([N+](=O)[O-])cc([N+](=O)[O-])c1O`: 126 °C.
`CC(C)=NO` had a boiling point of 136 °C and a melting point of 61 °C.
In the case of `FC(F)(Cl)C(F)(F)Cl`, the boiling point is 3.8 °C, the log10 vapour pressure (mmHg) came to 3.3 and the melting point was -94 °C.
`C#CCOc1cc(-n2nc(C(C)(C)C)oc2=O)c(Cl)cc1Cl`: the log10 vapour pressure (mmHg) was -7.73 and the melting point worked out at 131 °C.
Consider `CCN(CC)CCn1cnc2c1c(=O)n(C)c(=O)n2C`, for which the melting point was 75 °C.
In the case of `Nc1cc2c(cc1Cl)C(=O)c1ccccc1C2=O`, the melting point worked out at 282 °C.
On the same count and under the same terms, the same measure for `c1ccc(Cc2nc3ccccc3[nH]2)cc1`: 187 °C; for `O=C(C=NO)c1ccccc1`: 129 °C; for `CCOc1ccc(Cc2nccc3cc(OCC)c(OCC)cc23)cc1OCC`: 100 °C.
On to `CC1(C)[C@H](C=C(Cl)Cl)[C@H]1C(=O)OCc1c(F)c(F)cc(F)c1F`, for which the log10 vapour pressure (mmHg) was -5.52 and the melting point came out at 32 °C.
`c1ccc2c(c1)CCCC2`: the boiling point was determined as 208 °C, the log10 biodegradation half-life (days) was determined as 0.903, the log10 vapour pressure (mmHg) is -0.434 and the melting point is -35.7 °C. Moreover, the ready biodegradability result is “not readily biodegradable”.
Consider `OC(CCl)CCl`, for which the boiling point was found to be 176 °C, the log10 vapour pressure (mmHg) is -0.125, the melting point is -4 °C and the ready biodegradability result was “readily biodegradable”.
In turn, `FC(F)(F)F` had a boiling point of -128 °C, a log10 Henry constant (atm·m³/mol) of 0.712, a log10 Koa of -0.95 and a log10 vapour pressure (mmHg) of 5.24. This compound also returned a melting point of -184 °C.
For the compound `N#Cc1ccc(F)cc1`, the boiling point is 189 °C and the melting point amounted to 34.8 °C.
`O=C1C[C@H]2CCCC[C@H]2C1` displayed a boiling point of 222 °C and a melting point of -1 °C.
On to `COC1=C[C@@H](C)[C@@H]2C[C@H]3OC(=O)C[C@H]4C(C)=C(OC)C(=O)[C@H]([C@@]2(C)C1=O)[C@@]34C`, for which the melting point was determined as 222 °C.
`Clc1ccc(Oc2cccc(Cl)c2)cc1` returned a log10 vapour pressure (mmHg) of -3.19.

Staying with this data set, now noted: fish.
In the case of `c1ccc2c(c1)CCCC2`, the log10 BCF stood at 2.53 and the log10 biotransformation half-life (days) amounted to 0.75.
